Test results from patent publication US20230285372A1, “Pharmaceutical use of (E)-3-arylheterocyclylprop-2-enoic acid derivatives” (MEDCURIUS INC., priority 2020, published 2023).

Key:
Type in all cases: in vivo
[1] = tested on: MPTP-induced Parkinson's disease mouse; experiment: Rotarod test, MPTP-induced Parkinson's disease mouse; conditions: vs model group
Method: (§1) Male C57 mouse were screened for their motor function by a mouse rod-rotating test, and unqualified ones were excluded from the test. […] MPTP was injected subcutaneously every 4 days in the model group and the drug administration group with a dosage of 25 mg/kg for 40 consecutive days. Each group of I-5 was administered once a day at 8:00 am and 8:00 pm (by intragastric administration), twice in total. […] The intragastric volume was 0.1 ml/10 g body weight, and the behavior test was started 40 days later. […] The storage time of the prepared liquid medicine was not more than 24 hours.
On the first day, the mouse acclimated to a rotating speed of 5 rpm for two times, each time for 5 minutes. On the second day, the rotarod turned at a speed of 10 rpm, the mouse acclimated to the speed for two times, each time for 5 minutes. On the third day, the rotarod turned at a speed of 15 rpm, the mouse acclimated to the speed for two times, each time for 3 minutes. On the fourth day, a behavioral test was started. The rotarod turned at a speed of 15 rpm for a period of 3 minutes. The time mouse spent on the rotarod (fall latency) was taken as an index for evaluation of their motor coordination. The test was repeated three times for each animal, with an interval of 30 minutes to eliminate the interference of exercise fatigue on the motion ability of animals.

[2] = tested on: α-synuclein protein; experiment: α-synuclein protein level in midbrain, Western blot, MPTP mouse; conditions: high dosage treatment group of I-5; vs model group, p<0.05
Text: The core pathological change of Parkinson's disease is the loss of dopaminergic neurons. Tyrosine hydroxylase (TH), the rate-limiting enzyme in dopamine synthesis, is the landmark protein of the dopaminergic neurons. Therefore, the decrease in its level indicates the loss of the dopaminergic neurons. A key protein for the occurrence and development of Parkinson's disease is α-synuclein protein, and the abnormal modification (hyperphosphorylation) of this protein can inhibit microtubule polymerization, enhance oxidative stress, and thus accelerate the death of the dopaminergic neurons.
Male C57 mouse were screened for their motor function by a mouse rod-rotating test, and unqualified ones were excluded from the test. […] MPTP was injected subcutaneously every 4 days in the model group and the drug administration group with a dosage of 25 mg/kg for 40 consecutive days. Each group of I-5 was administered once a day at 8:00 am and 8:00 pm (by intragastric administration), twice in total. […]
Tissues from all the animals were collected on the second day after the end of the behavioral experiment. […] The level of tyrosine hydroxylase (TH), a marker protein of dopaminergic neurons, was detected by immumohistochemistry, and α-synuclein protein level and phosphorylation level of the protein were detected by Western blot.

[3] = tested on: MPTP-induced Parkinson's disease mouse; experiment: Pole-climbing test, MPTP-induced Parkinson's disease mouse; conditions: 40 days, vs model group
Method: as §1
A climbing pole in the pole-climbing test was a rough wooden pole with a diameter of 2 cm and a length of 50 cm. The bottom of the wooden pole was located in the mouse home cage and was vertically oriented. When the mouse was placed on top of the wooden pole, it would naturally descend to the bottom of the wooden pole and reach the base of the pole. […] The mouse should have a pre-acclimation period of 2 days prior to the test, training five times a day. To the test day, the time required for the […] to reach the bottom (incubation period) was taken as an evaluation index to observe the effect of the tested compound on the motion ability of the mouse.

Q: `N#C/C=C/c1ccccn1` [Compound I-5] was tested. Which “fall latency in the Rotarod test” value ([1]; 5 mg/kg bid intragastric, p>0.05) did it give?
A: Its value is “no significant difference”.

Q: What about the “fall latency in the Rotarod test” value ([1]; medium and high dosage groups (10 and 20 mg/kg bid), p<0.0001) of the same compound?
A: Its value is “significantly prolonged”.

Q: And the “α-synuclein protein level in the midbrain” value [2]?
A: The value was “significantly higher than that of the model group”.

Q: And the “latency of mouse reaching the base of the pole” value (“latency … of the pole” below) ([3]; I-5 5 mg/kg bid intragastric, p<0.01)?
A: The value was “significantly shortened”.

Q: And the “latency … of the pole” value ([3]; I-5 10 mg/kg bid intragastric, p<0.0001)?
A: The value was “significantly shortened”.

Q: What about the “latency … of the pole” value ([3]; I-5 20 mg/kg bid intragastric, p<0.0001) of the same compound?
A: The value was “significantly shortened”.
